Columns and labels:
[1] = target: Sodium channel protein type 5 subunit alpha (Homo sapiens, UniProt Q14524); assay type: functional, cell-based
[2] = target: T1, Gastric inhibitory polypeptide receptor (Homo sapiens, UniProt P48546)
T1 sequence (P48546 whole entry): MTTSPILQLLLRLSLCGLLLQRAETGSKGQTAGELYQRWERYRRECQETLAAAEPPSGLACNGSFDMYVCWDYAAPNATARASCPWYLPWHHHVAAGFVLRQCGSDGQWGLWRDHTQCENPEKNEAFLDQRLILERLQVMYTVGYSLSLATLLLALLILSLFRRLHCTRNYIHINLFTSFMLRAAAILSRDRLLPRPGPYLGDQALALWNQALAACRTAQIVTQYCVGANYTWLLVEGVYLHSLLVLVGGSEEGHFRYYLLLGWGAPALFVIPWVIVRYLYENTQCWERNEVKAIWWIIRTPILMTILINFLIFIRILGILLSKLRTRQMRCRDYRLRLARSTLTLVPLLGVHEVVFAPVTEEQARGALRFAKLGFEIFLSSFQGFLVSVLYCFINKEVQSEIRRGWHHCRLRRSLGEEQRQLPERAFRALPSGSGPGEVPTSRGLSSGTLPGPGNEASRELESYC

[3] = target: Beta-3 adrenergic receptor (Homo sapiens, UniProt P13945)
Beta-3 adrenergic receptor, sequence (P13945 whole entry): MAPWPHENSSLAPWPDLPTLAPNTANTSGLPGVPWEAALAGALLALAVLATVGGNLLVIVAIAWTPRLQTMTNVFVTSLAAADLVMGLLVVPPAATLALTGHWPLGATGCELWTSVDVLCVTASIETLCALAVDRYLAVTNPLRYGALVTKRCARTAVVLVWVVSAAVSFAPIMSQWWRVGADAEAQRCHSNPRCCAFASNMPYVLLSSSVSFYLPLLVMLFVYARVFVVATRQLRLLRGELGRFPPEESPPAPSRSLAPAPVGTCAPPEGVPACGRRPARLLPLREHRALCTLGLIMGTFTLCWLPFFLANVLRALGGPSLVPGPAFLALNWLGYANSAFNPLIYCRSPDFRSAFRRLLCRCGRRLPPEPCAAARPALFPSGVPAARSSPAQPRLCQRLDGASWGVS

[4] = target: Gamma-aminobutyric acid type B receptor subunit 1 (Homo sapiens, UniProt Q9UBS5)
Gamma-aminobutyric acid type B receptor subunit 1, sequence (Q9UBS5 whole entry): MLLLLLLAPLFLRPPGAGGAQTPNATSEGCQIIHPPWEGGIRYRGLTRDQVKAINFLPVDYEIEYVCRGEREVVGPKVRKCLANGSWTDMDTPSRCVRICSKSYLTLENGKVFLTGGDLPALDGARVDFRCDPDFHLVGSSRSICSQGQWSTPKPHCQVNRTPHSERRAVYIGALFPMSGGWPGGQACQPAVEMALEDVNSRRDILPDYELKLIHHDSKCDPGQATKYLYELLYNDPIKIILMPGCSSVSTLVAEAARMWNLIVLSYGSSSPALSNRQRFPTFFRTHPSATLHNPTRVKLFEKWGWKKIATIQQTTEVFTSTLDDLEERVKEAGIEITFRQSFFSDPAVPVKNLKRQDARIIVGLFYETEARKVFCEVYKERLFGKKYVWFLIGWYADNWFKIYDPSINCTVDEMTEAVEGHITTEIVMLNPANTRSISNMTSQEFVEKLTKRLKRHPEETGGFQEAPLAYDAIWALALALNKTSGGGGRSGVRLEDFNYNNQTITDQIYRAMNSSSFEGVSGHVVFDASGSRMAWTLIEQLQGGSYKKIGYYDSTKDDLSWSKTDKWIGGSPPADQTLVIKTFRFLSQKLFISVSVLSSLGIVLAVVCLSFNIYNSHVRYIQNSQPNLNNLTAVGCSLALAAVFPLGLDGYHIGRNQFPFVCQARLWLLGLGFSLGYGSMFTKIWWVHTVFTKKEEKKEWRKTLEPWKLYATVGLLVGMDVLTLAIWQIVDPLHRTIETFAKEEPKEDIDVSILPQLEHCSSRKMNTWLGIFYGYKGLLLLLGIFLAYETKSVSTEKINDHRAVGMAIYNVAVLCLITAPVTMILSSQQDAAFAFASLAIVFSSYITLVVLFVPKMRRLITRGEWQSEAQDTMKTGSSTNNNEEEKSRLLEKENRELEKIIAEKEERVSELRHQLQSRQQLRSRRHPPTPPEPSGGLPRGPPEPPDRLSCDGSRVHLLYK

[5] = target: Voltage-dependent N-type calcium channel subunit alpha-1B (Rattus norvegicus, UniProt Q02294); assay type: functional
Voltage-dependent N-type calcium channel subunit alpha-1B, sequence (Q02294 whole entry): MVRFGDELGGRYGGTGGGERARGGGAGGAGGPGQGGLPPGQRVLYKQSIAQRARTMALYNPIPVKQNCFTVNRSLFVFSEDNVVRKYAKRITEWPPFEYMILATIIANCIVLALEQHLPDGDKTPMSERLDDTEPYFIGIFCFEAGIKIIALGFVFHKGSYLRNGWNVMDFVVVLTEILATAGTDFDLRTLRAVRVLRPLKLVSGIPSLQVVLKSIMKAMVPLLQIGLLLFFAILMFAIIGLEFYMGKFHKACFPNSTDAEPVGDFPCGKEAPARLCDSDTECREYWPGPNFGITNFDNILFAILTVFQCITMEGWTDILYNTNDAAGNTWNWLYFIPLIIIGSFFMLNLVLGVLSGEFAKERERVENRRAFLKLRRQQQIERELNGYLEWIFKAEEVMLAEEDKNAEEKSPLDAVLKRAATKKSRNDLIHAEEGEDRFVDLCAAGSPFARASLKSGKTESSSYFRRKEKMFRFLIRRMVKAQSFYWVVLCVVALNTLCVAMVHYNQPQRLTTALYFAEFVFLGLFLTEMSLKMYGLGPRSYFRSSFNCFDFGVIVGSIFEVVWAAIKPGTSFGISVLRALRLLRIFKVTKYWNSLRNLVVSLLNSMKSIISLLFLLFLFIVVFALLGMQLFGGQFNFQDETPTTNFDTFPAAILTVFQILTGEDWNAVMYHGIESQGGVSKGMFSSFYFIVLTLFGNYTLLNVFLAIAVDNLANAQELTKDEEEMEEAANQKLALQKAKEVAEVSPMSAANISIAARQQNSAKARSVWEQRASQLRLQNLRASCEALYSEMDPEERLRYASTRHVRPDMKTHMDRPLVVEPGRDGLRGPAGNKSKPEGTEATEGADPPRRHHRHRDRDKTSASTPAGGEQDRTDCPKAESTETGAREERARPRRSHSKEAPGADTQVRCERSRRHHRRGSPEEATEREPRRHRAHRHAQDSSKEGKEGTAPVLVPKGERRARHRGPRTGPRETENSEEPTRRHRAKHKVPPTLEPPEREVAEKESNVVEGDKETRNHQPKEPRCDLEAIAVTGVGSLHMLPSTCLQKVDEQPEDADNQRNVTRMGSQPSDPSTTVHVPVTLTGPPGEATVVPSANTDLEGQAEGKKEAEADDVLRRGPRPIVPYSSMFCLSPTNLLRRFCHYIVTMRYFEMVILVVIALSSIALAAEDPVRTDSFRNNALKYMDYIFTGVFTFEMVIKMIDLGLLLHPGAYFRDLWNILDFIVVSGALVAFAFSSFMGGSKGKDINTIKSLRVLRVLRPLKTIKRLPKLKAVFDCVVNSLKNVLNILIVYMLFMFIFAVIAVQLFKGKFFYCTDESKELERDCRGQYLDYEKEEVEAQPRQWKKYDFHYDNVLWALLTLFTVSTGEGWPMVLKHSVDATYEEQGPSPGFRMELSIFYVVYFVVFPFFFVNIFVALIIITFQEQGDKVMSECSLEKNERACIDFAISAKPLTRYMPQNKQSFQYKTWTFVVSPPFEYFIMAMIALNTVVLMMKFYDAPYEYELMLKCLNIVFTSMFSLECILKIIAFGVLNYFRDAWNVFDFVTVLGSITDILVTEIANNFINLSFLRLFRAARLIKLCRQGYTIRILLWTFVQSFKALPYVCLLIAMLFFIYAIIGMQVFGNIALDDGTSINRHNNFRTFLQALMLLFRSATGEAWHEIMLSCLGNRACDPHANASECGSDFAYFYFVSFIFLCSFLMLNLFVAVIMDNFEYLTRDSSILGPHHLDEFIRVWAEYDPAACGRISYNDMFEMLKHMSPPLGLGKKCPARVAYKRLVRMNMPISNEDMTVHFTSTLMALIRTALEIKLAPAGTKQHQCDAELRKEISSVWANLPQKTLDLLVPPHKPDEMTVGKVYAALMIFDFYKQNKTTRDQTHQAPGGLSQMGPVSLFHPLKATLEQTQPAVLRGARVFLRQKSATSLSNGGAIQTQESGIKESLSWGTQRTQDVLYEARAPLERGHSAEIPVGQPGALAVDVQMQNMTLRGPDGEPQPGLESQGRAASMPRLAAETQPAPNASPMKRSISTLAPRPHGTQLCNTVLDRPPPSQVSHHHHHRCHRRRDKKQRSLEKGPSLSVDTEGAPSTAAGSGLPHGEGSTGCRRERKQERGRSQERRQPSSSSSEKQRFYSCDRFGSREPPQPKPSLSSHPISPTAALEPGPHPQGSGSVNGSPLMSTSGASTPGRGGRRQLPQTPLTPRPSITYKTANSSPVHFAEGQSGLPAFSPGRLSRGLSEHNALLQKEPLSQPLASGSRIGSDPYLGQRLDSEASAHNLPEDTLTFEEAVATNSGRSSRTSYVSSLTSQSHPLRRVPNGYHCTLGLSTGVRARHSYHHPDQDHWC

[6] = target: T2, Corticotropin-releasing factor receptor 1 (Homo sapiens, UniProt P34998)
T2 sequence (P34998 whole entry): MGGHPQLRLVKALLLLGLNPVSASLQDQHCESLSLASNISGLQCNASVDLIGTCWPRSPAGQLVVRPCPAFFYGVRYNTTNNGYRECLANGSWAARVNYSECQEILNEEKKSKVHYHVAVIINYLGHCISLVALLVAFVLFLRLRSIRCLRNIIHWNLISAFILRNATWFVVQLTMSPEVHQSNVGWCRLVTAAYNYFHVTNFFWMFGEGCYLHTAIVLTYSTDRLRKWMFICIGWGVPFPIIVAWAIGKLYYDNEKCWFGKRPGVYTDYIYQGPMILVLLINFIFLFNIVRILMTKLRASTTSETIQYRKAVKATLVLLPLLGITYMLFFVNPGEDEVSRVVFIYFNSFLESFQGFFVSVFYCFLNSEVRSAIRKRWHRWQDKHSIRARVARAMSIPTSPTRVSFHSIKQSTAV

Substance-K receptor = target: T3, Substance-K receptor (Homo sapiens, UniProt P21452)
T3 sequence (P21452 whole entry): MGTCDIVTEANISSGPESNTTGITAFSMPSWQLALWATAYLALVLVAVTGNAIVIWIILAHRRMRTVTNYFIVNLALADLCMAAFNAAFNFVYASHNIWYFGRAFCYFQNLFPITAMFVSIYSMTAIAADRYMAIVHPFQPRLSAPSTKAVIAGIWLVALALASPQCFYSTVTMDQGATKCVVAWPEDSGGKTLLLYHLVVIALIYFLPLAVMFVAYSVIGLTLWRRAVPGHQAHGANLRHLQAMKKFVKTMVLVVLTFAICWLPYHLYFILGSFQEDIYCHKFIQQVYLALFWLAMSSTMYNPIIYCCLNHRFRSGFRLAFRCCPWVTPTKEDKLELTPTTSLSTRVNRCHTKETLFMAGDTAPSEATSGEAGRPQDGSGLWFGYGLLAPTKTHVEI

[7] = target: 5-hydroxytryptamine receptor 5A (Homo sapiens, UniProt P47898)
5-hydroxytryptamine receptor 5A, sequence (P47898 whole entry): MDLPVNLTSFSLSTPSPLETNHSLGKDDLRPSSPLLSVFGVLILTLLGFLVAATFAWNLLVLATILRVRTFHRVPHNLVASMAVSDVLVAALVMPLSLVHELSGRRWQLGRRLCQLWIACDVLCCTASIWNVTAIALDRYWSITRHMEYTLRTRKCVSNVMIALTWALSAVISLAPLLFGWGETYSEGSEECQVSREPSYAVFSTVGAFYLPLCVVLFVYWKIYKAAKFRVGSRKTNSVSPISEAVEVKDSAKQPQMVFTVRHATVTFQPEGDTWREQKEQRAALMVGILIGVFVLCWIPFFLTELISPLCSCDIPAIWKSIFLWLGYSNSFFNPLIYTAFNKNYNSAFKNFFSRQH

D(4) dopamine receptor = target: T4, D(4) dopamine receptor (Homo sapiens, UniProt P21917)
T4 sequence (P21917 whole entry): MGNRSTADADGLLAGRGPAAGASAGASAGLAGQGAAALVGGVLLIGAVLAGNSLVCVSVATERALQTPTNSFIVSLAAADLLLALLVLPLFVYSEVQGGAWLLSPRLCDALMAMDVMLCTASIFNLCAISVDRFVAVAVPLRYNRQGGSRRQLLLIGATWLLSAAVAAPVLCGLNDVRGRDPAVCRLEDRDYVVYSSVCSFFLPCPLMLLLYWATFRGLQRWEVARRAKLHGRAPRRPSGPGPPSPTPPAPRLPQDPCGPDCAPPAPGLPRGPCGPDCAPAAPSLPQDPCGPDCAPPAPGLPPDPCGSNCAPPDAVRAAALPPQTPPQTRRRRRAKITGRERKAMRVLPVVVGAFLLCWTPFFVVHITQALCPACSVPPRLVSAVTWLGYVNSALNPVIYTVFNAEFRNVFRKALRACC

[8] = target: Neurotensin receptor type 1 (Homo sapiens, UniProt P30989)
Neurotensin receptor type 1, sequence (P30989 whole entry): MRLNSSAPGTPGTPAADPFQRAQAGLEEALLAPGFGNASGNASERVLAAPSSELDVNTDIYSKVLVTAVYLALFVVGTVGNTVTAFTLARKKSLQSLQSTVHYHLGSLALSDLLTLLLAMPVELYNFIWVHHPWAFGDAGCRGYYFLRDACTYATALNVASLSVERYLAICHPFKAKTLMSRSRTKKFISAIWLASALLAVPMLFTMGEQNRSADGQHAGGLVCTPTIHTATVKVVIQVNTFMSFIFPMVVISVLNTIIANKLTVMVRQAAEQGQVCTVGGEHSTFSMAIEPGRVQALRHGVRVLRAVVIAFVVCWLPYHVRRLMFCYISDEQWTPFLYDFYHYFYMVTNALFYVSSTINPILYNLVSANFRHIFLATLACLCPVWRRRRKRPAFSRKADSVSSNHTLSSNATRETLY

[9] = target: 5-hydroxytryptamine receptor 2B (Homo sapiens, UniProt P41595)
[10] = target: T5, Gamma-aminobutyric acid receptor subunit alpha-1/alpha-2/beta-2/gamma-2 (Homo sapiens, UniProt P14867+P18507+P47869+P47870); assay type: functional, cell-based
[11] = target: T5, Gamma-aminobutyric acid receptor subunit alpha-1/alpha-2/beta-2/gamma-2; assay type: functional, cell-based; remark: listed apart in the source
[12] = target: T6, Alpha-2A adrenergic receptor (Homo sapiens, UniProt P08913)
T6 sequence (P08913 whole entry): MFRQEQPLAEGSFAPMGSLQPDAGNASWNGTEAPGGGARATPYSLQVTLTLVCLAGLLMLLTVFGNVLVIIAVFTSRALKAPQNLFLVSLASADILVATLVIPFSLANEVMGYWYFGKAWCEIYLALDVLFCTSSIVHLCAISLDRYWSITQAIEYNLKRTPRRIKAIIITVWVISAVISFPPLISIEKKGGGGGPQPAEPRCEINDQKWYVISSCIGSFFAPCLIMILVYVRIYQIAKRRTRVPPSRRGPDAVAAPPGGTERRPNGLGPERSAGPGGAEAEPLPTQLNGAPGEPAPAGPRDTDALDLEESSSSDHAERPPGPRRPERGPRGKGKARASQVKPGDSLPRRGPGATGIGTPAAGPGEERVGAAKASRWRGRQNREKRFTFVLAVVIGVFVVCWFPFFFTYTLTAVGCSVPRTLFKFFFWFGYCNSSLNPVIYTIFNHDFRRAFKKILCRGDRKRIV

Histamine H1 receptor = Histamine H1 receptor (Homo sapiens, UniProt P35367); assay type: functional, cell-based
Histamine H1 receptor, sequence (P35367 whole entry): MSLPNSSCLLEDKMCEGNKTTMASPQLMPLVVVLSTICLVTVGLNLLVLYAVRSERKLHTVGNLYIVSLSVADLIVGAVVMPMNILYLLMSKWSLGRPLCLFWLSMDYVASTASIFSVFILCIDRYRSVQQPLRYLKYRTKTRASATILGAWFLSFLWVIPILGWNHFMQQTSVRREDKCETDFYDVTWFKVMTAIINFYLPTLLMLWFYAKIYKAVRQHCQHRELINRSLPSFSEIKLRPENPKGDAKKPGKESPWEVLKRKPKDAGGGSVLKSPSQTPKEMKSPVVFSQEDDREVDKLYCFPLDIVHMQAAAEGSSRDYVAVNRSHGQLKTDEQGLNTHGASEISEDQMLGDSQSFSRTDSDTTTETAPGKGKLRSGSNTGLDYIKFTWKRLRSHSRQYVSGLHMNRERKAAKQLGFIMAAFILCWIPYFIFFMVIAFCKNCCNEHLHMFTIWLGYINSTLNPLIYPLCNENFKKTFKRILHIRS

[13] = target: Beta-1 adrenergic receptor (Homo sapiens, UniProt P08588); assay type: functional, cell-based
Further: assay procedure not described here.

| SMILES | AC50 [2] | AC50 [5] | AC50 [6] | AC50 [8] | AC50 [10] | AC50 [11] | AC50 [12] | further results |
| --- | --- | --- | --- | --- | --- | --- | --- | --- |
| Fc1ccc([C@@H]2CCNC[C@H]2COc2ccc3c(c2)OCO3)cc1 [PAROXETINE] | > 30 µM | > 10 µM | > 30 µM | > 30 µM |  |  |  | AC50 [1]: 25.4 µM; AC50 [3]: > 30 µM; AC50 [4]: > 10 µM; AC50 (Substance-K receptor): > 10 µM; AC50 [7]: 5.63 µM; AC50 (D(4) dopamine receptor): > 10 µM; AC50 [9]: 11.9 µM |
| CO[C@H]1C[C@H](O[C@H]2CC[C@@]3(C)[C@H](CC[C@@H]4[C@@H]3CC[C@]3(C)[C@@H](C5=CC(=O)OC5)[C@@H](OC(C)=O)C[C@]43O)C2)O[C@@H](C)[C@@H]1O [OLEANDRIN] |  |  |  |  | > 30 µM | > 30 µM |  |  |
| CCc1nc(N)nc(N)c1-c1ccc(Cl)cc1 [PYRIMETHAMINE] |  |  |  |  |  |  | > 10 µM | AC50 [9]: > 10 µM |
| O=c1c(O)c(-c2ccc(O)c(O)c2)oc2cc(O)cc(O)c12 [QUERCETIN] | > 30 µM | > 10 µM | > 30 µM | > 30 µM |  |  | > 10 µM | AC50 [9]: 19.4 µM |
| O=c1[nH]c2ccccc2n1CCCN1CCN(C(c2ccccc2)c2ccccc2)CC1 [OXATOMIDE] |  |  |  |  | > 30 µM | > 30 µM |  | AC50 (Histamine H1 receptor): > 30 µM |
| CCC(=O)O[C@](Cc1ccccc1)(c1ccccc1)[C@H](C)CN(C)C [PROPOXYPHENE] | > 30 µM | > 10 µM | > 30 µM | > 30 µM |  |  | > 10 µM | AC50 [3]: > 30 µM; AC50 (D(4) dopamine receptor): > 10 µM; AC50 [9]: > 10 µM |
| Cc1ccnc2c1NC(=O)c1cccnc1N2C1CC1 [NEVIRAPINE] | > 30 µM | > 10 µM | > 30 µM | > 30 µM |  |  | > 10 µM | AC50 [3]: > 30 µM; AC50 (Substance-K receptor): > 10 µM; AC50 [7]: > 10 µM; AC50 (D(4) dopamine receptor): > 10 µM; AC50 [9]: > 10 µM |
| NS(=O)(=O)c1cc2c(cc1Cl)N=C(CSCc1ccccc1)NS2(=O)=O [BENZTHIAZIDE] |  |  |  |  |  |  | 2.48 µM |  |
| Cc1cc(=O)n(-c2ccccc2)n1C [ANTIPYRINE] |  |  |  |  |  |  | > 10 µM |  |
| CCOC(=O)c1ccc(C#Cc2ccc3c(c2)C(C)(C)CCS3)nc1 [TAZAROTENE] |  | > 10 µM |  |  |  |  |  |  |
| COc1ccc(CN2CCN(C(c3ccc(F)cc3)c3ccc(F)cc3)CC2)c(OC)c1OC [LOMERIZINE] |  |  |  |  |  |  |  | AC50 [1]: 16 µM |
| CCN1CCCC1CNC(=O)c1cc(S(=O)(=O)CC)ccc1OC (centres undefined) [SULTOPRIDE] |  |  |  |  | > 30 µM | > 30 µM |  | AC50 (Histamine H1 receptor): > 30 µM |
| NNC(=O)c1ccncc1 [ISONIAZID] | > 30 µM | > 10 µM | > 30 µM | > 30 µM |  |  | > 10 µM | AC50 [3]: > 30 µM; AC50 (D(4) dopamine receptor): > 10 µM; AC50 [9]: > 10 µM |
| CC(C)NC[C@H](O)COc1ccc(CC(N)=O)cc1 [ESATENOLOL] | > 30 µM | > 10 µM | > 30 µM | > 30 µM |  |  | > 10 µM | AC50 (D(4) dopamine receptor): > 10 µM |
| CCCCOc1ccc(C(=O)CCN2CCCCC2)cc1 [DYCLONINE] | > 30 µM | > 10 µM | > 30 µM | > 30 µM |  |  | > 10 µM | AC50 (Histamine H1 receptor): > 30 µM; AC50 [3]: > 30 µM; AC50 [4]: > 10 µM; AC50 (Substance-K receptor): > 10 µM; AC50 [7]: > 10 µM; AC50 (D(4) dopamine receptor): 4.11 µM; AC50 [9]: > 10 µM |
| CO/N=C(\C(=O)N[C@@H]1C(=O)N2C(C(=O)O)=C(CSc3nc(=O)c(=O)[nH]n3C)CS[C@H]12)c1csc(N)n1 [CEFTRIAXONE] |  |  |  |  | > 30 µM | > 30 µM |  | AC50 [1]: > 50 µM |
| CCOC(=O)[C@@H](N)Cc1ccc(-c2cc(O[C@H](c3ccc(Cl)cc3-n3ccc(C)n3)C(F)(F)F)nc(N)n2)cc1 [TELOTRISTAT ETHYL] |  |  |  |  | > 30 µM | > 30 µM |  | AC50 [1]: > 1 µM |
| COc1cc2[nH]c(C)c(CCN3CCN(c4ccccc4)CC3)c2cc1OC [OXYPERTINE] |  |  |  |  | > 30 µM | > 30 µM |  | AC50 (Histamine H1 receptor): > 30 µM |
| CC(CN(C)C)C(C)(O)Cc1ccc(Cl)cc1 (centres undefined) [CLOBUTINOL] |  |  |  |  |  |  |  | AC50 (Histamine H1 receptor): > 30 µM |
| CCCCCCCC(=O)CC[C@@H]1[C@@H](C/C=C\CCCC(=O)OC(C)C)[C@@H](O)C[C@H]1O [UNOPROSTONE ISOPROPYL] |  |  |  |  |  |  |  | AC50 [1]: 27 µM |
| CN1CCN=C(c2ccccc2)c2cc(Cl)ccc21 [MEDAZEPAM] |  |  |  |  |  |  |  | AC50 [13]: > 30 µM |
| COc1cc(C(=O)OCc2cccc(COC(=O)c3cc(OC)c(OC)c(OC)c3)n2)cc(OC)c1OC [PIROZADIL] |  |  |  |  | > 30 µM | > 30 µM |  | AC50 (Histamine H1 receptor): > 30 µM |
| O=C(NCCO[N+](=O)[O-])c1cccnc1 [NICORANDIL] |  |  |  |  | > 30 µM | > 30 µM |  | AC50 (Histamine H1 receptor): > 30 µM |
| CC(C)N(CCCCOCC(=O)O)c1cnc(-c2ccccc2)c(-c2ccccc2)n1 |  |  |  |  |  |  |  | AC50 [13]: > 30 µM |
| CCOC(=O)C(C)(C)Oc1ccc(Cl)cc1 [CLOFIBRATE] | > 30 µM | > 10 µM | > 30 µM | > 30 µM |  |  |  | AC50 [3]: > 30 µM |
| COc1cc(N)c(Cl)cc1C(=O)NC1CCN(CCCOc2ccc(F)cc2)CC1OC (centres undefined) [CISAPRIDE] | > 30 µM | > 10 µM | > 30 µM | > 30 µM |  |  |  | AC50 [1]: > 50 µM; AC50 [3]: > 30 µM; AC50 [4]: > 10 µM |
| C=CCN1CCc2nc(N)sc2CC1 [TALIPEXOLE] |  |  |  |  |  |  | 0.98 µM | AC50 [13]: > 30 µM |
| O=C(CCCN1CCC(O)(c2ccc(Br)cc2)CC1)c1ccc(F)cc1 [BROMPERIDOL] |  |  |  |  |  |  |  | AC50 [13]: > 30 µM |
| c1ccc(C2(N3CCCCC3)CCCCC2)cc1 [PHENCYCLIDINE] |  |  |  |  | > 30 µM | > 30 µM |  |  |
| O=C1Nc2ccc(Cl)cc2C(c2ccccc2Cl)=NC1O (centres undefined) [LORAZEPAM] | > 30 µM | > 10 µM | > 30 µM | > 30 µM |  |  | > 10 µM | AC50 [3]: > 30 µM; AC50 (D(4) dopamine receptor): > 10 µM; AC50 [9]: > 10 µM |
